The IC50 is the concentration that inhibits the measured activity by half. One may read the IC90 as the concentration at which the effect reaches the 90% level.

Each structure is given as a SMILES string. A value given as a limit tells only on which side of the number the result lay.

This assay deals with Plasmodium berghei. The assay is described as follows: Luciferase/luciferin-expressing antifolate-resistant parasites were used to infect a culture of HepG2 cells that were pre-incubated with compounds. Infected hepatocytes emit light due to the luciferase reaction. Assay results are presented as the percent inhibition of light emission compared to control. […]. Type of assay: functional. To be noted: sporozoite; for IC50: read-out: LUCIFERASE INFECTION ASSAY - IC50; for IC90: read-out: LUCIFERASE INFECTION ASSAY - IC90.

For the compound `Cc1cccc(C)c1OCCOC(=O)c1[nH]nc2ccccc12`, the IC50 was more than 10 µM and the IC90 is more than 10 µM.
With `c1nc(NCC2(N3CCOCC3)CCCCC2)c2ccsc2n1`, the 50% inhibitory concentration (IC50) was more than 10 µM and the IC90 was more than 10 µM.
`Cc1ccc2c(CC(=O)Nc3sccc3C(N)=O)coc2c1`: the IC50 is more than 10 µM and the IC90 is more than 10 µM.
As for `Cc1cc(C)cc(C(=O)Nc2nc3ccccc3[nH]2)c1`, the IC50 was 7.33 µM and the concentration for an effect of 90% (IC90) was more than 10 µM.
With `CN(CCOc1ccc(Br)cc1)CC(O)COc1ccc(C#N)cc1` (configuration not stated), the IC50 was found to be 8.69 µM and the IC90 was more than 10 µM.
The like results for `COc1ccc(Nc2nc(CN3CCN(Cc4ccc(C#N)cc4)CC3)cs2)cc1` were, in that order, more than 10 µM and more than 10 µM.
Consider `CNS(=O)(=O)c1ccc(CNc2ncnc3cc(-c4ccc(OC)cc4)sc23)s1`, for which the IC50 was found to be 0.653 µM and the IC90 worked out at 2.1 µM.
As for `CCc1cccc2c(/C=C3\C(=O)Nc4ccccc43)c[nH]c12`, the IC50 turned out to be 6.04 µM and the IC90 is more than 10 µM.
As for `O=S(=O)(c1ccc(C2=NNC(=NC3CC3)SC2)cc1)N1CCCCC1`, the half-inhibitory concentration (IC50) was more than 10 µM and the IC90 is more than 10 µM.
`Cc1noc2nc(C(C)C)cc(C(=O)Nc3nc4ccccc4[nH]3)c12`: the IC50 is more than 10 µM and the IC90 is more than 10 µM.
In the case of `CCCCNC(=O)c1c(NC(=O)c2c(F)ccc(F)c2F)nc2ccccn12`, the IC50 is more than 8.45 µM and the IC90 is more than 8.45 µM.
For the compound `O=C(Nc1ccc(N2CCOCC2)cc1)c1ccccc1Nc1ccc(F)cc1`, the IC50 is more than 10 µM and the 90% effect concentration (IC90) was more than 10 µM.
On to `NC(=O)NC(=O)C(Nc1ccc(Oc2ccccc2)cc1)c1ccccc1` (configuration not stated), for which the IC50 is more than 10 µM and the IC90 was more than 10 µM.
As for `O=C(Nc1ccc2c[nH]nc2c1)c1cccc(Oc2ccccc2)c1`, the IC50 was more than 10 µM and the IC90 was more than 10 µM.
Consider `N#Cc1ccc(CN2CCCN(c3ncnc4sccc34)CC2)cc1`, for which the IC50 worked out at 1.67 µM and the IC90 is more than 10 µM.
As for `CCCN(CC(=O)Nc1cc(Cl)ccc1Cl)CC(=O)Nc1sccc1C(N)=O`, the IC50 is more than 10 µM and the 90% effect concentration (IC90) was more than 10 µM.
As for `Cc1nn2c(nc(NCCCc3n[nH]c(N)c3C#N)c3ccccc32)c1Cl`, the IC50 is more than 10 µM and the IC90 was more than 10 µM.
On to `N#Cc1ccnc(N2CCN(c3ncnc4scc(-c5ccccc5)c34)CC2)c1`, for which the IC50 was more than 10 µM and the IC90 is more than 10 µM.
`c1ccc(-c2cc(NCc3cccs3)nc3ccccc23)cc1`: the IC50 is more than 10 µM and the IC90 was more than 10 µM.
Regarding `Cc1ccc(C2=NNC(=Nc3cccc(S(=O)(=O)N(C)C)c3)SC2)cc1`, the IC50 was determined as 3.5 µM and the IC90 turned out to be 4.33 µM.
Regarding `c1ccc(-c2csc3ncnc(N4CCN(c5cnccn5)CC4)c23)cc1`, the IC50 is more than 10 µM and the IC90 was more than 10 µM.
`O=C(Nc1cccc(S(=O)(=O)Nc2ccc(Cl)cc2)c1)c1[nH]nc2ccccc12`: the IC50 is 8.98 µM and the IC90 was more than 10 µM.
The like results for `Cc1noc(C)c1C(=O)Nc1nc(-c2c[nH]c3ccccc23)cs1` were, in that order, more than 10 µM and more than 10 µM.
As to `Oc1cccc(Nc2nc(N3CCCCC3)c3ccccc3n2)c1`, the half-maximal inhibitory concentration (IC50) is more than 10 µM and the IC90 was more than 10 µM.
Regarding `O=C(CCc1c(-c2ccc(F)cc2)[nH]c2ccc(F)cc12)N1CCN(c2ccccn2)CC1`, the IC50 stood at 3.16 µM and the IC90 was determined as 3.87 µM.
Regarding `CC(=N)C(C#N)c1csc(NC(=O)c2cc(-c3ccccc3)nc3c2cnn3C(C)C)n1` (configuration not stated), the IC50 was 6.35 µM and the 90% effect concentration (IC90) was determined as 9.99 µM.
As for `CC(=O)c1ccc(OCC(O)CN2CCC(c3c[nH]c4ccccc34)CC2)cc1` (configuration not stated), the IC50 turned out to be 5.84 µM and the IC90 is more than 10 µM.
The like results for `O=C(Nc1cccc(-c2nc3ccccc3[nH]2)c1)c1cccc(S(=O)(=O)N2CCCC2)c1` were, in that order, more than 10 µM and more than 10 µM.
Turning to `Cc1cccc(-n2cc(-c3ccccc3)c3c(N4CCN(CCO)CC4)ncnc32)c1`, the concentration for half-maximal inhibition (IC50) is more than 10 µM and the IC90 is more than 10 µM.
In the case of `CC(C)n1ncc2cc(C(=O)Nc3nc4ccccc4s3)cnc21`, the IC50 stood at 0.00908 µM and the IC90 is 1.97 µM.
The like results for `COc1ccc2c(-c3ccccc3)cc(SCC(=O)Nc3sccc3C(N)=O)nc2c1` were, in that order, 7.85 µM and 9.16 µM.
On the same counts, the results for `Nc1nc(Sc2ncnc3ccsc23)nc2sccc12` are 9.85 µM and more than 10 µM.
On the same counts, the results for `Cc1ccc(CCC2CCN(C(C)C(=O)Nc3cccc(S(N)(=O)=O)c3)CC2)cc1` (configuration not stated) are 6.94 µM and more than 10 µM.
In the case of `O=S(=O)(c1ccc(N=C2NN=C(c3ccc4ccccc4c3)CS2)cc1)N1CCOCC1`, the IC50 was 4.82 µM and the IC90 is 9.33 µM.
As to `Cc1ccc(C(=O)NCc2ccc(-c3ccc(Cl)cc3)o2)cc1NC(=O)c1ccco1`, the IC50 was more than 10 µM and the IC90 is more than 10 µM.
On to `O=C(NCCCn1ccc2ccccc21)Nc1ccc(Cl)c(Cl)c1`, for which the IC50 is more than 10 µM and the concentration for an effect of 90% (IC90) is more than 10 µM.
For `COc1ccc(NC(=O)c2ccc(-n3cnc4ccccc43)cc2)cc1Cl`, the IC50 worked out at 8.58 µM and the IC90 was more than 10 µM.
The like results for `O=C(Nc1cc([N+](=O)[O-])ccc1Cl)Nc1ccccc1-c1nc2ccccc2[nH]1` were, in that order, more than 10 µM and more than 10 µM.
On the same counts, the results for `CCS(=O)(=O)c1ccc2oc(NC(=O)C3CCC3)nc2c1` are more than 10 µM and more than 10 µM.
The like results for `Cc1cc(-c2cc(C(=O)NCCN3CCOCC3)c3cnn(C(C)C)c3n2)c(C)s1` were, in that order, more than 10 µM and more than 10 µM.
For the compound `CC(C#N)Sc1nc(Nc2ccccc2)c2ccccc2n1` (configuration not stated), the IC50 was more than 10 µM and the IC90 was more than 10 µM.
Turning to `O=C(CN1CCN(Cc2csc(Nc3cccc(C(F)(F)F)c3)n2)CC1)N1CCCC1`, the IC50 was more than 10 µM and the IC90 was more than 10 µM.
Consider `CN(CC(=O)Nc1ccc(Cl)c(C(F)(F)F)c1)CC(=O)Nc1ccc(Cl)cn1`, for which the IC50 was more than 10 µM and the IC90 was more than 10 µM.
With `COc1ccc(-c2nc(NC(=O)c3ccc4nc[nH]c4c3)sc2C)cc1`, the IC50 is more than 10 µM and the IC90 is more than 10 µM.
For `O=C(Nc1nc2ccccn2c1C(=O)NC1CCCCC1)c1c(F)ccc(F)c1F`, the IC50 is more than 7.93 µM and the concentration for an effect of 90% (IC90) is more than 7.93 µM.
As to `Cc1ccc(F)c(Nc2ncnc3sccc23)c1`, the IC50 is more than 10 µM and the IC90 was more than 10 µM.
In the case of `CC(=O)c1c[nH]c(C(=O)Nc2nc(C)c(-c3ccccn3)s2)c1`, the IC50 was more than 10 µM and the 90% effect concentration (IC90) was more than 10 µM.
Turning to `Clc1ccc(-c2csc3ncnc(NCc4ccco4)c23)cc1`, the IC50 is more than 10 µM and the IC90 was more than 10 µM.
As for `Fc1ccc(-c2cc3ncnc(NC4CC4)c3s2)cc1`, the concentration for half-maximal inhibition (IC50) was more than 10 µM and the IC90 was more than 10 µM.
`Clc1ccc2c(Sc3nnc4ccccn34)ccnc2c1`: the IC50 is more than 10 µM and the IC90 is more than 10 µM.
With `Cc1cc(C)cc(NC(=O)CNCCCn2ccc3ccccc32)c1`, the half-maximal inhibitory concentration (IC50) was more than 10 µM and the IC90 was more than 10 µM.
Take `O=C(Nc1cccc(Cl)c1)Nc1nc2ccccc2[nH]1`: the IC50 is more than 10 µM and the IC90 was more than 10 µM.
As to `Cc1cc(C(=O)Nc2nc3c(C)cccn3c2C(=O)NC2CCCC2)c(C)o1`, the IC50 was more than 8.67 µM and the IC90 is more than 8.67 µM.
On to `CC(C)n1ncc2cc(C(=O)Nc3nc(-c4ccccn4)cs3)cnc21`, for which the IC50 amounted to 1.07 µM and the IC90 amounted to 2.1 µM.
The like results for `COc1cc(C(=O)Nc2nc3ccccc3[nH]2)ccc1C` were, in that order, 5.35 µM and 8.73 µM.
For the compound `O=C(Cc1c(F)cccc1Cl)Nc1ccccc1-c1nc2ccccc2[nH]1`, the IC50 amounted to 1.73 µM and the concentration for an effect of 90% (IC90) was determined as 7.35 µM.
The like results for `COc1ccc(-c2cc3ncnc(NCc4ccc(S(=O)(=O)N5CCCC5)s4)c3s2)cc1` were, in that order, 3.52 µM and 4.46 µM.
On the same counts, the results for `CNC(=O)NC(=O)CNc1ccc(C(F)(F)F)cc1` are more than 10 µM and more than 10 µM.
On to `Cc1sc2nc(CN3CCCC3)nc(Oc3ccc4ccncc4c3)c2c1C`, for which the IC50 was 9.51 µM and the IC90 was more than 10 µM.
As for `COc1ccc2c(-c3ccccc3)cc(NCCc3ccc(S(N)(=O)=O)cc3)nc2c1`, the IC50 amounted to 8.55 µM and the IC90 was more than 10 µM.
The like results for `CC(C)CCN(C(=O)CN1c2ccccc2CC1C)c1c(N)n(Cc2ccccc2)c(=O)[nH]c1=O` (configuration not stated) were, in that order, more than 10 µM and more than 10 µM.
Turning to `Cc1ccccc1CNc1ncnc2sccc12`, the IC50 came to 5.22 µM and the IC90 is more than 10 µM.
The like results for `CCC(C)NC(=O)c1c(NC(=O)c2cc(F)c(F)cc2F)nc2ccc(C)cn12` (configuration not stated) were, in that order, 0.917 µM and 1.1 µM.
On the same counts, the results for `CC(C)n1ncc2c(C(=O)NCCCn3ccc4ccccc43)cc(C3CC3)nc21` are more than 10 µM and more than 10 µM.
The like results for `NC(=O)c1cc(-c2ccccc2)sc1NC(=O)Nc1ccccc1F` were, in that order, 9.4 µM and more than 10 µM.
Take `O=C(Nc1ccc(N2CCOCC2)cc1)c1cccc(-c2nn[nH]n2)c1`: the IC50 was more than 10 µM and the IC90 was more than 10 µM.
As for `c1ccc(-c2cc3c(NCc4ccccc4CN4CCOCC4)ncnc3s2)cc1`, the IC50 is more than 10 µM and the IC90 is more than 10 µM.
With `O=C(c1cnc2cc3c(cc2c1)OCCCO3)c1cc(F)ccc1O`, the IC50 came out at 3.12 µM and the 90% effect concentration (IC90) turned out to be 3.65 µM.
Regarding `N#Cc1ccsc1NC(=O)CCN1CCN(Cc2c(F)cccc2Cl)CC1`, the IC50 was more than 10 µM and the IC90 is more than 10 µM.
`CC(Nc1ncnc2ccsc12)c1cccc2ccccc12` (configuration not stated): the IC50 amounted to 2.13 µM and the IC90 is more than 10 µM.
On the same counts, the results for `CCCn1c(NC(=O)c2ccc3ncsc3c2)nc2ccccc21` are 8.47 µM and 9.62 µM.

The values are drawn from ChEMBL document CHEMBL4483862, “Open-source discovery of chemical leads for next-generation chemoprotective antimalarials” (2018).
